Test results: patent US20060128628A1, “Human tissue antigen-binding peptides and their amino acid sequences” (priority 2004, published 2006)

Columns and labels:
[1] = target: T1, human tissue antigen 0201 (HLA-A0201) (Homo sapiens, UniProt P04439, D140Y/D185E/D98H/E176V/E277Q/G131W/G231S/I119V/I121R/I166T/I218V/L300P/L318F/N151K/N90K/P208A/P217A/Q86G/Q94H/R138H/R169H/T345S); type: cell-based
T1 construct: T2 cell line is a cell line lacking of the transporters associated with antigen processing (TAP), TAP1 and TAP2; endogenous in cells; host or cells: T2 cell line (TAP1/TAP2-deficient)

[2] = tested on: spleen lymphocytes expressing simultaneously CD8+ and IFN-γ+; set-up: species or system C57BL/6 mice transgenic for human tissue antigen 0201; conditions: in vivo

| Sequence | binding to human tissue antigen 0201 on T2 cells (HLA-A2 expression, median fluorescence intensity) [1] | relative binding ability among peptides S1-S10 in the T2 cell binding test [1] | induction of antigen-specific cytotoxicity (lymphocytes expressing simultaneously CD8+ and IFN-γ+) [2] | induction of cytotoxicity by vaccine containing peptide (proportion of spleen lymphocytes expressing CD8+ and IFN-γ+) [2] |
| --- | --- | --- | --- | --- |
| VLNDILSRL [S4] | could bind to the human tissue antigen 0201 |  |  |  |
| VLYENQKQI [S5] | could bind to the human tissue antigen 0201 |  |  |  |
| ILPDPLKPT [S6] | could bind to the human tissue antigen 0201 | strongest binding ability | could induce cytotoxicity | could induce cytotoxicity |
| VVFLHVTYV [S2] | could bind to the human tissue antigen 0201 | strongest binding ability | could induce cytotoxicity | could induce cytotoxicity |
| NLNESLIDL [S1] | could bind to the human tissue antigen 0201 |  |  |  |
